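Results reflect a 48-hour exposure of cells in 96-well plates to compound at five concentrations. GI50 is the concentration that inhibits growth by half.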 Calls of active or inactive are those of the source. Rule as the data show it: active = GI50 up to about 1.1 µM and inactive = higher.
Tests used:
Assay in all cases: NCI anticancer screen, dose series, 48 h
[1] = test system: K562
[2] = test system: UACC-62
[3] = test system: OVCAR-4
[4] = test system: SNB-19
[5] = test system: IGROV-1
[6] = test system: LOX IMVI
[7] = test system: CCRF-CEM
[8] = test system: SF-295
[9] = test system: SR
[10] = test system: ACHN
[11] = test system: SK-MEL-28
[12] = test system: UO-31
[13] = test system: A549
[14] = test system: MDA-MB-435
[15] = test system: HOP-92
[16] = test system: SF-268
[17] = test system: Hs-578T
[18] = test system: SK-OV-3
[19] = test system: RPMI-8226
[20] = test system: HCC 2998
[21] = test system: NCI-H522
[22] = test system: NCI/ADR-RES
[23] = test system: U-251
[24] = test system: MOLT-4
[25] = test system: COLO 205
[26] = test system: MCF7
[27] = test system: HT-29
[28] = test system: MDA-MB-231
[29] = test system: OVCAR-3
[30] = test system: EKVX
[31] = test system: NCI-H23
[32] = test system: MDA-N
[33] = test system: SW-620
[34] = test system: HCT-15
[35] = test system: DU-145
[36] = test system: NCI-H226
[37] = test system: SF-539
[38] = test system: CAKI-1
[39] = test system: PC-3
[40] = test system: KM12
[41] = test system: TK-10
[42] = test system: BT-549
[43] = test system: OVCAR-8
[44] = test system: SK-MEL-2
[45] = test system: NCI-H460
[46] = test system: HL-60
[47] = test system: SN12C
[48] = test system: 786-0
[49] = test system: OVCAR-5
[50] = test system: UACC-257
[51] = test system: M14
[52] = test system: SK-MEL-5
[53] = test system: T47D
[54] = test system: HCT-116
[55] = test system: Malme-3M
[56] = test system: A498
[57] = test system: SNB-75
[58] = test system: HOP-62
[59] = test system: RXF 393

## Cc1ccc(C(=O)NN=C(/N=N/c2cccc(C)c2)c2ccc(N(C)C)cc2)cc1
[1]
  GI50: > 100 µM (inactive)
[2]
  GI50: > 100 µM (inactive)
[3]
  GI50: > 100 µM (inactive)
[4]
  GI50: > 100 µM (inactive)
[5]
  GI50: > 100 µM (inactive)
[6]
  GI50: > 100 µM (inactive)
[7]
  GI50: > 100 µM (inactive)
[8]
  GI50: > 100 µM (inactive)
[9]
  GI50: > 100 µM (inactive)
[10]
  GI50: > 100 µM (inactive)
[11]
  GI50: > 100 µM (inactive)
[12]
  GI50: > 100 µM (inactive)
[13]
  GI50: > 100 µM (inactive)
[14]
  GI50: > 100 µM (inactive)
[15]
  GI50: 51.8 µM (inactive)
[16]
  GI50: > 100 µM (inactive)
[17]
  GI50: > 100 µM (inactive)
[18]
  GI50: 64 µM (inactive)
[19]
  GI50: > 100 µM (inactive)
[20]
  GI50: > 100 µM (inactive)
[21]
  GI50: > 100 µM (inactive)
[22]
  GI50: > 100 µM (inactive)
[23]
  GI50: > 100 µM (inactive)
[24]
  GI50: > 100 µM (inactive)
[25]
  GI50: > 100 µM (inactive)
[26]
  GI50: > 100 µM (inactive)
[27]
  GI50: > 100 µM (inactive)
[28]
  GI50: > 100 µM (inactive)
[29]
  GI50: > 100 µM (inactive)
[30]
  GI50: > 100 µM (inactive)
[31]
  GI50: > 100 µM (inactive)
[32]
  GI50: 50.9 µM (inactive)
[33]
  GI50: > 100 µM (inactive)
[34]
  GI50: > 100 µM
[35]
  GI50: 28.4 µM (inactive)
[36]
  GI50: > 100 µM (inactive)
[37]
  GI50: > 100 µM (inactive)
[38]
  GI50: > 100 µM (inactive)
[39]
  GI50: > 100 µM (inactive)
[40]
  GI50: > 100 µM (inactive)
[41]
  GI50: > 100 µM (inactive)
[42]
  GI50: > 100 µM (inactive)
[43]
  GI50: > 100 µM (inactive)
[44]
  GI50: > 100 µM (inactive)
[45]
  GI50: > 100 µM (inactive)
[46]
  GI50: > 100 µM (inactive)
[47]
  GI50: > 100 µM (inactive)
[48]
  GI50: > 100 µM (inactive)
[49]
  GI50: > 100 µM (inactive)
[50]
  GI50: > 100 µM (inactive)
[51]
  GI50: > 100 µM (inactive)
[52]
  GI50: > 100 µM (inactive)
[53]
  GI50: 2.82 µM (inactive)
[54]
  GI50: > 100 µM (inactive)

## CC(C)(C)[Si](C)(C)OCC1OC(n2cc(F)c(=O)[nH]c2=O)CC1O[Si](C)(C)C(C)(C)C (stereo not drawn)
[1]
  GI50: 4.14 µM (inactive)
[2]
  GI50: 5.14 µM (inactive)
[3]
  GI50: 6.46 µM (inactive)
[4]
  GI50: 12.4 µM (inactive)
[5]
  GI50: 6.71 µM (inactive)
[6]
  GI50: 5.79 µM (inactive)
[55]
  GI50: 16.4 µM (inactive)
[7]
  GI50: 4.17 µM (inactive)
[8]
  GI50: 6.97 µM (inactive)
[9]
  GI50: 3.1 µM (inactive)
[10]
  GI50: 10.1 µM (inactive)
[56]
  GI50: 6.87 µM (inactive)
[12]
  GI50: 10.8 µM (inactive)
[13]
  GI50: 10.5 µM (inactive)
[14]
  GI50: 12 µM (inactive)
[16]
  GI50: 14.5 µM (inactive)
[17]
  GI50: 11.1 µM (inactive)
[18]
  GI50: 14 µM (inactive)
[19]
  GI50: 3.5 µM (inactive)
[20]
  GI50: 1.72 µM (inactive)
[57]
  GI50: 4.03 µM (inactive)
[21]
  GI50: 3.29 µM (inactive)
[22]
  GI50: 16 µM (inactive)
[23]
  GI50: 8.65 µM (inactive)
[24]
  GI50: 3.98 µM (inactive)
[25]
  GI50: 4.25 µM (inactive)
[26]
  GI50: 5.01 µM (inactive)
[27]
  GI50: 7.19 µM (inactive)
[58]
  GI50: 13.2 µM (inactive)
[28]
  GI50: 7.5 µM (inactive)
[29]
  GI50: 15.2 µM (inactive)
[59]
  GI50: 4.42 µM (inactive)
[30]
  GI50: 8.04 µM (inactive)
[31]
  GI50: 6.53 µM (inactive)
[32]
  GI50: 6.21 µM (inactive)
[33]
  GI50: 9.93 µM (inactive)
[34]
  GI50: 7.24 µM
[35]
  GI50: 3.46 µM (inactive)
[36]
  GI50: 19.4 µM (inactive)
[37]
  GI50: 13.6 µM (inactive)
[38]
  GI50: 12.5 µM (inactive)
[39]
  GI50: 3.16 µM (inactive)
[40]
  GI50: 4.19 µM (inactive)
[41]
  GI50: 2.84 µM (inactive)
[42]
  GI50: 5.43 µM (inactive)
[43]
  GI50: 16.1 µM (inactive)
[44]
  GI50: 12.1 µM (inactive)
[45]
  GI50: 2.4 µM (inactive)
[46]
  GI50: 3.78 µM (inactive)
[47]
  GI50: 2.89 µM (inactive)
[48]
  GI50: 8.63 µM (inactive)
[49]
  GI50: 17 µM (inactive)
[50]
  GI50: 4.02 µM (inactive)
[51]
  GI50: 13.3 µM (inactive)
[52]
  GI50: 3.27 µM (inactive)
[53]
  GI50: 1.11 µM (active)
[54]
  GI50: 7.66 µM (inactive)

## CC(=O)OC1C(COC(=O)c2ccccc2)OC(Nc2ncc(-c3ccc(Br)cc3)s2)C(OC(=O)c2ccccc2)C1OC(=O)c1ccccc1 (stereo not drawn)
[1]
  GI50: > 100 µM (inactive)
[2]
  GI50: > 100 µM (inactive)
[3]
  GI50: > 100 µM (inactive)
[4]
  GI50: > 100 µM (inactive)
[5]
  GI50: > 100 µM (inactive)
[6]
  GI50: > 100 µM (inactive)
[55]
  GI50: > 100 µM (inactive)
[8]
  GI50: > 100 µM (inactive)
[9]
  GI50: > 100 µM (inactive)
[10]
  GI50: > 100 µM (inactive)
[11]
  GI50: > 100 µM (inactive)
[12]
  GI50: > 100 µM (inactive)
[13]
  GI50: > 100 µM (inactive)
[14]
  GI50: > 100 µM (inactive)
[15]
  GI50: 93.1 µM (inactive)
[16]
  GI50: > 100 µM (inactive)
[17]
  GI50: > 100 µM (inactive)
[18]
  GI50: > 100 µM (inactive)
[19]
  GI50: > 100 µM (inactive)
[57]
  GI50: > 100 µM (inactive)
[21]
  GI50: > 100 µM (inactive)
[22]
  GI50: > 10 µM (inactive)
[23]
  GI50: > 100 µM (inactive)
[24]
  GI50: > 100 µM (inactive)
[25]
  GI50: > 100 µM (inactive)
[26]
  GI50: > 100 µM (inactive)
[27]
  GI50: > 100 µM (inactive)
[58]
  GI50: > 100 µM (inactive)
[28]
  GI50: > 100 µM (inactive)
[29]
  GI50: > 100 µM (inactive)
[59]
  GI50: > 100 µM (inactive)
[30]
  GI50: > 100 µM (inactive)
[31]
  GI50: > 100 µM (inactive)
[32]
  GI50: > 100 µM (inactive)
[33]
  GI50: > 100 µM (inactive)
[34]
  GI50: > 10 µM
[35]
  GI50: > 100 µM (inactive)
[36]
  GI50: > 100 µM (inactive)
[39]
  GI50: > 100 µM (inactive)
[41]
  GI50: > 100 µM (inactive)
[42]
  GI50: > 100 µM (inactive)
[43]
  GI50: > 100 µM (inactive)
[44]
  GI50: 14.5 µM (inactive)
[45]
  GI50: > 100 µM (inactive)
[47]
  GI50: > 100 µM (inactive)
[48]
  GI50: 84.1 µM (inactive)
[49]
  GI50: > 100 µM (inactive)
[50]
  GI50: > 100 µM (inactive)
[51]
  GI50: > 100 µM (inactive)
[52]
  GI50: > 100 µM (inactive)
[53]
  GI50: > 100 µM (inactive)
[54]
  GI50: > 100 µM (inactive)

Reference: ChEMBL document CHEMBL1201862, “PubChem BioAssay data set” (2004)
